Data from patent publication US20240299424A1, “USE OF PHYTOCANNABINOIDS FOR TREATING ENDOMETRIAL CANCER AND ENDOMETRIOSIS” (INTEGRATIVE THERAPY DISCOVERY LAB S.R.L., priority 2021, published 2024).

Assays:
Ishikawa cells = experiment: MTT cell viability assay, Ishikawa type I endometrial cancer cell line; format: cell-based, human; details: 72 hours; for cytotoxicity (cell viability, % vs vehicle) in combination: in double with cannabidiol (10, 15 and 20 microM CBD), FIG. 3-4; for cytotoxicity (cell viability, % vs vehicle): phytocannabinoid alone, FIG. 1; for cytotoxicity (cell viability, % vs vehicle) in combination with chemotherapeutic drugs: with paclitaxel (PAC), doxorubicin (DOX) and cisplatin (CIS), FIG. 7-10
Experimental: (§1) Ishikawa is a well differentiated type I cell line, was purchased from Sigma Aldrich (Milan, Italy). Ishikawa cells were grown in EMEM medium (Lonza, Milan, Italy), supplemented with 5% fetal bovine serum (FBS), 2 mM/L of glutamine, 100 IU/ml of penicillin, and […] of streptomycin. Primary EC cells PCEM004A, poorly differentiated mixed type I/II cell line, was grown in RPMI1640, supplemented with 20% FBS, 2 mM/L of glutamine, 100 IU/ml of penicillin, and […] of streptomycin. Immortalized human endometriotic cell line (12Z) was generated by infecting cells, obtained from a person undergoing laparoscopy, with SV40 virus. This cell line was purchased by Applied Biological Materials Inc and was maintained in Prigrow III medium supplemented with 20% no-heat inactivated FBS, 100 IU/ml of penicillin and […] of streptomycin. Human pancreatic ductal adenocarcinoma PANC-1 cell line was purchased by Sigma Aldrich (Milan, Italy) and cultured in DMEM high glucose medium (EuroClone, Milan, Italy) supplemented with 10% FBS, 2 mM L-glutamine, 100 IU/mL penicillin, […] streptomycin and 1 mM sodium pyruvate. The human glioblastoma U251 cell line (grade IV), obtained from European Collection of Cell Cultures (ECACC, Salisbury, UK), was maintained in EMEM supplemented with 10% FBS, 2 mmol/L L-glutamine, 100 IU/mL penicillin and 100 μg streptomicin. Media were changed every 48 hours until cells were 90% confluent. All cell lines were maintained at 37 C with 5% CO2 and 95% humidity.
(§2) EC cell lines, PANC-1, U251, and 12Z (3×10^4 cells/ml) were plated in 96-well plates, in a final volume of 100 microl/well. After 24 hours, treatments or vehicles were added for 72 hours. At least six replicates were used for each treatment. At the indicated time point, cell viability was assessed by adding 0.8 mg/ml of 3-[4,5-dimethylthiazol-2-yl]-2,5 diphenyl tetrazolium bromide (MTT, Sigma-Aldrich) to the media. After 3 hours, the plates were centrifuged, the supernatant was removed, and the pellet was solubilized with 100 microl/well of DMSO. The absorbance of the samples against a background control (medium alone) was measured at 570 nm using an ELISA reader microliter plate (BioTek Instruments, Winooski, VT, United States). IC50 was calculated by PRISM 5.0a software, for single phytocannabinoids.

PCEM004A cells = experiment: MTT cell viability assay, primary mixed type PCEM004A endometrial cancer cell line; format: cell-based, human; details: 72 hours; for cytotoxicity (cell viability, % vs vehicle): phytocannabinoid alone, FIG. 5; for cytotoxicity (cell viability, % vs vehicle) in combination with chemotherapeutic drugs: with paclitaxel (PAC), doxorubicin (DOX) and cisplatin (CIS), FIG. 7-10
Experimental: as §1, §2

PANC-1 cells = experiment: MTT cell viability assay, PANC-1 pancreatic ductal adenocarcinoma cell line; format: cell-based, human; details: PANC-1, 72 hours post-treatment, FIG. 11
Experimental: as §1, §2

U251 cells = experiment: MTT cell viability assay, U251 glioblastoma cell line; format: cell-based, human; details: U251, 72 hours post-treatment, FIG. 13
Experimental: as §1, §2

[1] = test system: 12Z endometriotic cell line; experiment: MTT cell viability assay, 12Z endometriotic cell line; format: cell-based, human; details: single administration, 72 hours post-treatment, FIG. 15-20
Experimental: as §1, §2

[2] = test system: 12Z endometriotic cell line; experiment: Transwell invasion assay, 12Z endometriotic cells; format: cell-based, human; details: non-cytotoxic dose, 24 hours, Transwell/Matrigel, major effect order THC>CBG>CBD>CBDV>CBN>CBC, FIG. 22-30
Experimental: as §1
12Z cell invasion was evaluated by Transwell invasion assay using Transwell chambers (BD Biosciences, Franklin Lakes, NJ, USA) characterized by the upper face of the polycarbonate membrane covered with 1 mg/ml Matrigel. A total of 750 μl cell culture medium supplemented with 10% FBS was added in the lower chamber. Serum free culture medium ([…]) containing 2.5×10^4 12Z endometriotic cells was plated into the upper chamber with the appropriate treatment. After 24 hours of incubation, the cells remaining in the upper chamber were removed by cotton swabs. The cells on the lower and inner surface of the membrane were fixed in cold methanol, stained with hoechst and observed using a fluorescence microscope (BX51 fluorescence microscope, Olympus, Milan, Italy). A total of ten fields at ×10 magnification were selected at random to measure the average cell coverage using ImageJ software version 1.45s (National Institutes of Health, Bethesda, MD, USA). The experiments were performed in triplicate at least three times independently.

[3] = test system: endometrial cancer cell lines; experiment: MTT cell viability, endometrial cancer cell lines tested (Ishikawa and PCEM004A, stated jointly); format: cell-based, human; details: for dose dependence of effect on cell viability: individual phytocannabinoids
Experimental: as §1, §2

IL-33 = experiment: RT/PCR TaqMan array, IL-33 gene expression in 12Z cells; format: cell-based, human; details: 48 hours, CBG, CBC, CBN 30 microM, CBD, CBDV 10 microM, THC 40 microM
Experimental: (§3) Total RNA from untreated or single treated 12Z cell line with CBD, CBG, CBC, CBN, CBDV and THC was extracted using Rneasy Mini kit (Qiagen, Milan, Italy). One microgram of total RNA from each sample was subjected to reverse transcription in a total volume of 20 μL using the High-Capacity cDNA Archive Kit (Applied Biosystem, Foster City, PA, USA) according to the instructions. cDNAs were analyzed by qRT-PCR performed using an IQ5 Multicolor Real time PCR Detection system. Quantitative real-time gene expression was performed with the TaqMan® Array Plate, containing 15 associated cytokine genes and beta-actin as endogenous control gene, was purchased (Thermo Fisher, Grand Island, NY, USA) and used to evaluate the treatments in modulating 12Z-related genes. Measurement of housekeeping gene (beta-Actin) on the samples was used to normalize mRNA content. The gene expression levels of treated cell lines were expressed as normalized fold compared with vehicle-treated cells.

IL-1beta = experiment: RT/PCR TaqMan array, IL-1beta gene expression in 12Z cells; format: cell-based, human; details: 48 hours, CBG, CBC, CBN 30 microM, CBD, CBDV 10 microM, THC 40 microM
Experimental: as §3

IL-6 = experiment: RT/PCR TaqMan array, IL-6 gene expression in 12Z cells; format: cell-based, human; details: 48 hours, CBG, CBC, CBN 30 microM, CBD, CBDV 10 microM, THC 40 microM
Experimental: as §3

CXCL8 = experiment: RT/PCR TaqMan array, CXCL8 gene expression in 12Z cells; format: cell-based, human; details: 48 hours, CBG, CBC, CBN 30 microM, CBD, CBDV 10 microM, THC 40 microM
Experimental: as §3

STAT-3 = experiment: RT/PCR TaqMan array, STAT-3 gene expression in 12Z cells; format: cell-based, human; details: 48 hours, CBG, CBC, CBN 30 microM, CBD, CBDV 10 microM, THC 40 microM
Experimental: as §3

[4] = test system: type I cells and mixed type endometrial cancer cell lines; details: cited from earlier work

Compound | cytotoxicity (cell viability, % vs vehicle) in combination (Ishikawa cells) | cytotoxicity (cell viability, % vs vehicle) (Ishikawa cells) | cytotoxicity (cell viability, % vs vehicle) in combination with chemotherapeutic drugs (Ishikawa cells) | cytotoxicity (cell viability, % vs vehicle) (PCEM004A cells) | cytotoxicity (cell viability, % vs vehicle) in combination with chemotherapeutic drugs (PCEM004A cells) | cytotoxicity (cell viability, % vs vehicle) (PANC-1 cells) | cytotoxicity (cell viability, % vs vehicle) (U251 cells) | cytotoxicity (cell viability, % vs vehicle) [1] | endometriosis cell invasion [2] | dose dependence of effect on cell viability ([3]; endometrial cancer cell lines) | IL-33 gene expression (normalized versus vehicle) (IL-33) | IL-1beta gene expression (normalized versus vehicle) (IL-1beta) | IL-6 gene expression (normalized versus vehicle) (IL-6) | CXCL8 gene expression (normalized versus vehicle) (CXCL8) | STAT-3 gene expression (normalized versus vehicle) (STAT-3) | chemotherapeutic drugs cytotoxicity ([4]; endometrial cancer cell lines) | cell viability ([4]; type I cells (cell death) and mixed type endometrial cancer cell lines (autophagy)) | efficacy in reducing cell viability (rank among individual phytocannabinoids) ([3]; endometrial cancer cell lines, order: CBN, followed by CBDV, CBG, THC and CBC) | efficacy of phytocannabinoid combinations in reducing cell viability ([3]; endometrial cancer cells, combinations of phytocannabinoids)
CCCCCc1cc(O)c2c(c1)OC(C)(CCC=C(C)C)C=C2 (stereo not drawn) [CBC, 2-methyl-2-(4-methylpent-3-enyl)-7-pentylchromen-5-ol] | induced cytotoxicity | induced cytotoxicity | induced cytotoxicity | induced cytotoxicity | induced cytotoxicity | induced cytotoxicity | induced cytotoxicity | induced cytotoxicity | effective in reducing endometriosis cells invasion | dose dependent effect | – | – | – | – | – | – | – | – | –
C=C(C)[C@@H]1CCC(C)=C[C@H]1c1c(O)cc(CCCCC)cc1O [CBD, 2-[(1R,6R)-3-methyl-6-prop-1-en-2-ylcyclohex-2-en-1-yl]-5-pentylbenzene-1,3-diol, reference compound] | – | – | – | – | – | – | – | induced cytotoxicity | effective in reducing endometriosis cells invasion | dose dependent effect | reduced | reduced | reduced | reduced | reduced | improves chemotherapeutic drugs cytotoxicity | reduces cell viability | – | –
C=C(C)[C@@H]1CCC(C)=C[C@H]1c1c(O)cc(CCC)cc1O [CBDV, 2-[(1R,6R)-3-methyl-6-prop-1-en-2-ylcyclohex-2-en-1-yl]-5-propylbenzene-1,3-diol] | induced cytotoxicity | induced cytotoxicity | induced cytotoxicity | induced cytotoxicity | induced cytotoxicity | induced cytotoxicity | induced cytotoxicity | induced cytotoxicity | effective in reducing endometriosis cells invasion | dose dependent effect | reduced | – | reduced | reduced | – | – | – | – | –
CCCCCc1cc(O)c(C/C=C(\C)CCC=C(C)C)c(O)c1 [CBG, 2-[(2E)-3,7-dimethylocta-2,6-dienyl]-5-pentylbenzene-1,3-diol] | induced cytotoxicity | induced cytotoxicity | induced cytotoxicity | induced cytotoxicity | induced cytotoxicity | induced cytotoxicity | induced cytotoxicity | induced cytotoxicity | effective in reducing endometriosis cells invasion | dose dependent effect | reduced | reduced | – | reduced | – | – | – | – | –
CCCCCc1cc(O)c2c(c1)OC(C)(C)c1ccc(C)cc1-2 [CBN, 6,6,9-trimethyl-3-pentylbenzo[c]chromen-1-ol] | induced cytotoxicity | induced cytotoxicity | induced cytotoxicity | induced cytotoxicity | induced cytotoxicity | induced cytotoxicity | induced cytotoxicity | induced cytotoxicity | effective in reducing endometriosis cells invasion | – | – | – | – | reduced | – | – | – | highest | amplified the effect of all cannabinoids
CCCCCc1cc(O)c2c(c1)OC(C)(C)[C@@H]1CCC(C)=C[C@@H]21 [THC, (6aR,10aR)-6,6,9-trimethyl-3-pentyl-6a,7,8,10a-tetrahydrobenzo[c]chromen-1-ol, reference compound] | induced cytotoxicity | induced cytotoxicity | induced cytotoxicity | induced cytotoxicity | induced cytotoxicity | induced cytotoxicity | induced cytotoxicity | induced cytotoxicity | effective in reducing endometriosis cells invasion | dose dependent effect | – | – | reduced | – | – | – | – | – | –
